Assay results published in article PMC7437366 (Biochemistry, 2010).
Like-named read-outs stand apart in the source and are kept apart here.

Columns and labels:
[1] = tested on: AKHR-mediated ERK1/2 activation; type: cell-based, Bombyx; details: for Dose dependence of PKC inhibitor effect on ERK1/2 activation: inhibitor 0.03 μM to 3 μM, three independent experiments
[2] = tested on: adipokinetic effect of AKH; details: M. sexta, in vivo; ref [44]; cited from earlier work
fat body of Bombyx = assay: Lipolysis in the fat body of Bombyx; details: MEK inhibitor treatment; preliminary experiment, data not shown
[3] = tested on: magnolol-induced lipolysis; details: MEK inhibitor; ref [57]; cited from earlier work

CN(C)CCCn1cc(C2=C(c3c[nH]c4ccccc34)C(=O)NC2=O)c2ccccc21 [GF109203X]
Dose dependence of PKC inhibitor effect on ERK1/2 activation ([1]; 1 hour, AKH 5 nM, 5 min): decrease in the activation of ERK1/2 stimulated by 5 nM AKH in a dose-dependent manner

COc1ccc2c(c1)CC[C@@H]1[C@@H]2CC[C@]2(C)[C@@H](NCCCCCCN3C(=O)C=CC3=O)CC[C@@H]12 [U73122]
Effect of PLC inhibitor on ERK1/2 activation ([1]; U73122 10 μM, 1 hour, AKH 5 nM, 5 min, Fig. 4A, S1): could not block the activation of ERK1/2

O=S(=O)(NCCNC/C=C/c1ccc(Br)cc1)c1cccc2cnccc12 [H89]
Dose dependence of inhibition of ERK1/2, PKA inhibitor ([1]; H89 1 μM to 20 μM, 1 hour, AKH 5 nM, 5 min, mean ± S.E.M (n = 3)): Inhibition of ERK1/2 is dependent on the concentration of H89 | Effect on ERK1/2 phosphorylation, PKA inhibitor ([1]; H89 10 μM, 1 hour preincubation, 37°C, AKH 0.1 nM to 10 nM, 5 min, mean ± S.E.M (n = 3)): significantly decreased ERK1/2 phosphorylation | Effect on AKH-induced ERK1/2 phosphorylation, PKA inhibitor ([1]; H89 20 μM, 1 h, 37°C, AKH 5 nM, 5 min, Fig. 9): significant decrease of AKH-induced phosphorylation of ERK1/2

COC[C@H]1OC(=O)c2coc3c2[C@@]1(C)C1=C(C3=O)[C@@H]2CCC(=O)[C@@]2(C)C[C@H]1OC(C)=O [Wortmanmin, wortmannin]
Effect on AKH-induced ERK1/2 activation, PI3K inhibitor ([1]; wortmannin 1 μM, 1 h, 37°C, AKH 5 nM, 5 min, Fig. 9, S2): no effect on ERK1/2 activation

COc1ccc(CCN(C)CCCC(C#N)(c2ccc(OC)c(OC)c2)C(C)C)cc1OC (stereo not drawn) [verapamil]
Effect of Ca2+ channel inhibitors on adipokinetic effect of AKH [2]: effectively impair the adipokinetic effect of AKH

O=C(NCCN1CCC(n2c(=O)[nH]c3ccccc32)CC1)c1cc2cc(F)ccc2[nH]1 [FIPI]
Effect of PLD inhibitor on ERK1/2 activation ([1]; FIPI 1 μM, 1 hour, AKH 5 nM, 5 min, Fig. 4B, S1): could not block the activation of ERK1/2

N#CC(=C(/N)Sc1ccccc1N)/C(C#N)=C(/N)Sc1ccccc1N [U0126]
Effect on AKH-induced ERK1/2 phosphorylation, MEK inhibitor ([1]; U0126 100 nM, 1 h, 37°C, AKH 5 nM, 5 min, Fig. 9): significant decrease of AKH-induced phosphorylation of ERK1/2 | Effect on lipolysis in the fat body of Bombyx (fat body of Bombyx): blockade of lipolysis in the fat body of Bombyx

COc1cccc(-c2cc(=O)c3ccccc3o2)c1N [PD98059]
Effect on magnolol-induced lipolysis [3]: inhibited

CCCCCCCCCCCCCCCCCCOCC(COP(=O)([O-])OCC[N+](C)(C)C)OC (stereo not drawn) [ET-18-OCH3]
Effect of PLC inhibitor on ERK1/2 activation ([1]; ET-18-OCH3 100 μM, AKH 5 nM, S1): could not block the activation of ERK1/2

COc1ccc2c(c1)c(C1=C(c3c[nH]c4ccccc34)C(=O)NC1=O)cn2CCCN(C)C [Go6983]
Effect on AKH-induced ERK1/2 phosphorylation, PKC inhibitor ([1]; Go6983 3 μM, 1 h, 37°C, AKH 5 nM, 5 min, Fig. 9): significant decrease of AKH-induced phosphorylation of ERK1/2 | Dose dependence of PKC inhibitor effect on ERK1/2 activation ([1]; 1 hour, AKH 5 nM, 5 min): decrease in the activation of ERK1/2 stimulated by 5 nM AKH in a dose-dependent manner

COC(=O)C1=C(C)NC(C)=C(C(=O)OC)C1c1ccccc1[N+](=O)[O-] [nifedipine]
Effect of Ca2+ channel inhibitors on adipokinetic effect of AKH [2]: effectively impair the adipokinetic effect of AKH

CNC(=O)[C@H](Cc1c[nH]c2ccccc12)NC(=O)[C@@H](CC(=O)NO)CC(C)C [GM6001]
Effect on AKH-induced ERK1/2 activation, MMP inhibitor ([1]; GM6001 5 μM, 1 h, 37°C, AKH 5 nM, 5 min, Fig. 9, S2): no effect on ERK1/2 activation

CC(C)(C)n1nc(-c2ccc(Cl)cc2)c2c(N)ncnc21 [PP2]
Effect on AKH-induced ERK1/2 activation, Src inhibitor ([1]; PP2 10 μM, 1 h, 37°C, AKH 5 nM, 5 min, Fig. 9, S2): no effect on ERK1/2 activation

COc1cc2ncnc(Nc3cccc(Cl)c3)c2cc1OC [AG1478]
Effect on AKH-induced ERK1/2 activation, EGFR inhibitor ([1]; AG1478 1 μM, 1 h, 37°C, AKH 5 nM, 5 min, Fig. 9, S2): no effect on ERK1/2 activation
